Source: patent publication US7812016B2, “Naphthyridine integrase inhibitors” (SmithKline Beecham Corporation, priority 2003, dated 2010)
pIC50: −log10 of the molar value.

Tested on: HIV-1 (strain IIIB)
Test: MT4 Cell Assay (antiviral HIV activity, propidium iodide or MTS readout)
Assay type: cell-based
Conditions: Human immunodeficiency virus 1, IIIB, expected range for the control and standard, tested in every assay, MT4 cells
Method: Antiviral HIV activity and compound-induced cytotoxicity were measured in parallel by means of a propidium iodide based procedure in the human T-cell lymphotropic virus transformed cell line MT4. Aliquots of the test compounds were serially diluted in medium (RPMI 1640, 10% fetal calf serum (FCS), and gentamycin) in 96-well plates (Costar 3598) using a Cetus Pro/Pette. Exponentially growing MT4 cells were harvested and centrifuged at 1000 rpm for 10 min in a Jouan centrifuge (model CR 4 12). Cell pellets were resuspended in fresh medium (RPMI 1640, 20% FCS, 20% IL-2, and gentamycin) to a density of 5×10^5 cells/ml. Cell aliquots were infected by the addition of HIV-1 (strain IIIB) diluted to give a viral multiplicity of infection of 100× TCID50. […]
A. For propidium iodide readout, 27 μl of 5% Nonidet40 was added to each well of the incubation plate. […] The plates were analyzed in an automated assay instrument (Screen Machine, Idexx Laboratories). […]
B. For MTS readout, 20 μl CellTiter 96 AQ One Solution reagent (Promega #G3582) was added to each well. At 75 minutes following the addition of MTS reagent, absobance was read at 492 nm using a Tecan Sunrise 96-well plate reader. […]
For each assay plate, the results (relative fluorescence units, rfU, or OD values) of wells containing uninfected cells or infected cells with no compound were averaged, respectively. […]

pIC50: 6.92 to 7.40
Compound: Cc1cn([C@H]2C[C@H](N=[N+]=[N-])[C@@H](CO)O2)c(=O)[nH]c1=O [3′-azido-3′-deoxythymidine]
